# In patent publication US6013628A, “Method for treating conditions of the eye using polypeptides” (Regents of the University of Minnesota, priority 1995, dated 2000):
# No end group written: not given here.
# Columns and labels:
# [1] = test system: rabbit conjunctival fibroblasts; test: Conjunctival fibroblast proliferation, tritiated thymidine assay; assay type: cell-based; details: for Thymidine uptake: day 4, no drug control 8537 cpm
# Source text: The failure of gluacoma treatment by filtration surgery is most often caused by scarring. Scarring requires fibroblast proliferation and fibrosis of the subconjunctive space. Proliferation of rabbit conjunctival fibroblasts was studied using the tritiated thymidine assay, which serves as an in vitro model of fibroblast proliferation in the rabbit eye (see Invest. Ophthalmol. Vis. Sci., 31, 1848-1855 (1990)). The ability of synthetic polypeptides derived from ECM molecules to inhibit conjuntival fibroblast proliferation was examined in this model.
# Rabbit conjunctival fibroblasts were plated into 96-well microtiter plates at 1000 cells/well in 200 microliters of standard fibroblast culture media. Standard fibroblast culture media include Eagle's minimal essential medium containing 15% fetal bovine serum, penicillin G 100 IU/ml, streptomycin 100 μg/ml, and amphotericin B 0.25 μg/ml. Hep-II was added to the wells in concentrations ranging from 1 μg/ml to 1000 μg/ml after removing an equal volume of media to maintain 200 microliters/well. The peptide was used in concentrations of 1, 3, 7, 10, 25, 50, 100, 200, 300, 400, 500, 600, 800 and 1000 microgram/ml (experiments 1-14, respectively in FIG. 26). The tissue culture plates were incubated at 37° C. in a humidified atmosphere of 5% carbon dioxide. Two separate sets experiments were conducted. Each set of experiments was done in replicates of four. In the first set of experiments, tritiated thymidine was added 22 hours prior to each harvesting on days 4, 5, and 8. In the second set of experiments, tritiated thymidine was added 22 hours prior to each harvesting on days 4, 5, and 6. Wells with vehicle but no test compound served as negative controls (experiment #15) and cells with mitomycin-C at 100 μg/ml served as positive controls (experiment #16).
# [2] = test system: proliferative vitreoretinopathy in rabbits; test: Rabbit model of experimental proliferative vitreoretinopathy (intravitreal fibroblast injection); assay type: in vivo
# Method: The rabbit model for proliferative vitreoretinopathy is described in Thresher et al., Graefe's Arch. Clin. Exp. Ophthalmol., 221, 192-198 (1984). Adult Dutch Belted rabbits of both sexes were used in the study. All animals were treated according to ARVO Animal Use Guidelines. All eyes were examined prior to initiation of a study and only clinically normal animals were used.
# The rabbits were anesthetized using an intramuscular injection of a mix of ketamine (30 mg/kg) and xylazine (5 mg/kg). Pupils were dilated with Mydriacyl (Tropicamide) 1% and Neosynephrine 2.5% topical drops. Topical conjunctival anesthesia was provided with Proparacaine […] drops. All procedures were performed in an approved animal surgical facility. […] This site was used for subsequent intraocular injections, preventing iatrogenic retinal tears at the injection site. An intravitreal injection of 0.4 cc millipore-filtered 100% perfluoropropane gas was administered to produce a gas compression vitrectomy. Once the expansile gas bubble had absorbed, 5-10×10^4 dermal rabbit fibroblasts with or without 200 μg of polypeptide (injection volume-0.1 cc) were injected through a 27 gauge needle into the vitreous cavity. Under indirect ophthalmoscopic visualization, the tip of the needle was placed over the optic nerve head and the cells were injected in this location.
# The animals were then observed for the development of proliferative vitreoretinopathy. The final stage of retinal detachment was scored from 0 to 7 using the standard grading scale shown below (see Hida et al., Graefe's Arch. Clin. Exp. Ophthalmol., 225, 1763-1769 (1991)).
# Retinal photographs were taken with a wide field fundus camera (Canon) to document the final stage of retinal detachment. Animals were sacrificed while under deep anesthesia with an intravenous injection of 1 cc of euthanasia solution. The eyes were then immediately enucleated, fixed in 10% formalin, paraffin embedded, sectioned at 7 microns, and stained with hematoxylin and eosin for histology.
# Three weeks following peripheral retinal cryopexy and gas compression vitrectomy, rabbit fibroblasts incubated for 1 hr with 200 ug of laminin polypeptide R37, type IV collagen polypeptide Hep-II, or BSS (balanced saline solution; control) were injected intravitreally. One eye of each rabbit received polypeptide incubated fibroblasts and the other eye received the control cells. Eyes were examined every three days, and the degree of retinal detachment was graded on the standard scale described above.
# rabbit eye = test: Intravitreal polypeptide toxicity in rabbit eye (ERG, clinical observations, histology); assay type: in vivo
# Method: The toxicity of the polypeptides was determined by three techniques:
# ERG. Electroretinograms (ERG) were carried out as a functional indicator of toxicity of a polypeptide treatment. Polypeptides were injected at 200 ug and 400 ug (twice the dose that inhibited proliferative vitreoretinopathy), and ERG measurements were performed three times in each eye at various times post-injection (1 hr to 6 weeks).
# Clinical observations. Observation by indirect ophthalmoscopy and slit lamp examination were performed to probe for evidence of toxicity.
# Histology. Following ERG and clinical observations, the eyes were immediately enucleated, fixed in 10% formalin, paraffin embedded, sectioned at 7 microns, and stained with hematoxylin and eosin.
# [3] = 3H-heparin; cited from earlier work
sequence,measurement,setting,value
"LAGSCLARFSTM [Hep-II, Leu-Ala-Gly-Ser-Cys-Leu-Ala-Arg-Phe-Ser-Thr-Met]",Thymidine uptake,[1]; 800 microgram/ml,580 cpm
same,Thymidine uptake,[1]; 1000 microgram/ml,589 cpm
same,Concentration effective in controlling fibroblast proliferation in vitro,[1]; similar to mitomycin-C,800-1000 microgram/ml
same,"Retina appearance (stage 0-7 scale), fundus photograph","[2]; 200 ug with 100,000 fibroblasts, seven weeks after fibroblast injection",normal (Stage 0)
same,# Detached Retinas (%),"[2]; Expt I: 200 ug, 50,000 cells, RD staged at day 21, control 66%",17%
same,# Detached Retinas,"[2]; Expt I: 200 ug, 50,000 cells, RD staged at day 21, total 6 eyes, control 4 of 6",1
same,Degree of retinal detachment,"[2]; fibroblasts incubated 1 hr with 200 ug polypeptide, intravitreal",inhibited the degree of retinal detachment
same,Fundus appearance,rabbit eye; 6 weeks after injection of 200 ug in 0.1 ml,indistinguishable from the control eye
same,"Toxic effects by clinical observations, histopathology or ERG",rabbit eye; intravitreal injection of 200 ug or 400 ug,No toxic effects
same,Heparin binding,[3],reported to bind heparin
